Structures can show the parent of a compound that is named as a salt.
Target: T1, PHD2 (Homo sapiens, UniProt Q9GZT9)
T1 construct: FLAG-tagged full length PHD2 expressed in and purified from baculovirus-infected Sf9 cells; FLAG; made in house; host or cells: baculovirus-infected Sf9 cells
Assay: PHD2 / HIF-1α peptide hydroxylation assay, time resolved fluorescence (VHL complex detection)
Assay type: biochemical
Details: FLAG-tagged full length PHD2; 0.2 μM 2-oxoglutarate, 0.5 μM HIF-1α peptide; read-out: PHD2 Activity (PHD2 binding activity expressed as IC50 (nM))
Summary of the method: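 Sf9-expressed FLAG-tagged full-length PHD2 (0.15 μg/ml) preincubated with compound 30 min at room temperature in Tris pH 7.4 buffer with 10 μM ferrous sulfate, 1 mM ascorbate and catalase. Reaction started with 0.2 μM 2-oxoglutarate and 0.5 μM biotinylated HIF-1α peptide (final); hydroxylation detected by time-resolved fluorescence via VHL complex binding.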

T1 sequence (Q9GZT9 whole entry): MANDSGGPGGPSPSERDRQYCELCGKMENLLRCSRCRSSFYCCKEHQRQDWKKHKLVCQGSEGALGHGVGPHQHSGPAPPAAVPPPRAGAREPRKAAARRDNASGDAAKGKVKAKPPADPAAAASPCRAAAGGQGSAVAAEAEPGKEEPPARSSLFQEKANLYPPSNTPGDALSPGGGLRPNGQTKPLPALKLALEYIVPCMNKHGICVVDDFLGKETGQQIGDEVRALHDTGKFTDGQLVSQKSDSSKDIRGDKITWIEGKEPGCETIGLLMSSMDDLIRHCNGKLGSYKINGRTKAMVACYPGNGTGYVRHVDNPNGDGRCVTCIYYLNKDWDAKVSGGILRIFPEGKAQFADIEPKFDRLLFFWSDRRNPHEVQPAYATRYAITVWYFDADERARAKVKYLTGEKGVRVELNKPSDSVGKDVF

Structure (SMILES) | IC50 [nM]
COc1ccc(C(NC(=O)c2cnc(-c3cccnn3)nc2O)c2ccc3cc(OC)ccc3n2)cc1 (stereo not shown) [Example 172, 4-hydroxy-N-[(4-methoxyphenyl)(6-methoxyquinolin-2-yl)methyl]-2-(pyridazin-3-yl)pyrimidine-5-carboxamide] | ≤ 10
COc1ccc(C(NC(=O)c2cnc(-c3cccnn3)nc2O)c2nc3ccccc3s2)cc1 (stereo not shown) [Example 173, N-[1,3-benzothiazol-2-yl(4-methoxyphenyl)methyl]-4-hydroxy-2-(pyridazin-3-yl)pyrimidine-5-carboxamide] | ≤ 10
COc1ccc(C(NC(=O)c2cnc(-c3cccnn3)nc2O)c2ccc(OC)cc2OC)c(OC)c1 [Example 174, N-[bis(2,4-dimethoxyphenyl)methyl]-4-hydroxy-2-(pyridazin-3-yl)pyrimidine-5-carboxamide] | ≤ 10
COc1ccc(C(NC(=O)c2cnc(-c3cccnn3)nc2O)c2ccc(OC)cc2C)c(C)c1 [Example 175, N-[bis(4-methoxy-2-methylphenyl)methyl]-4-hydroxy-2-(pyridazin-3-yl)pyrimidine-5-carboxamide] | ≤ 10
COc1ccc(C(NC(=O)c2cnc(-c3cccnn3)nc2O)c2ccc(F)cc2)c(OC)c1 (stereo not shown) [Example 176, N-[(2,4-dimethoxyphenyl)(4-fluorophenyl)methyl]-4-hydroxy-2-(pyridazin-3-yl)pyrimidine-5-carboxamide] | ≤ 10
COc1ccc(C(NC(=O)c2cnc(-c3cccnn3)nc2O)c2ccc(F)cc2)c(OC)n1 (stereo not shown) [Example 177, N-[(2,6-dimethoxypyridin-3-yl)(4-fluorophenyl)methyl]-4-hydroxy-2-(pyridazin-3-yl)pyrimidine-5-carboxamide] | ≤ 10
COc1ccc(C(NC(=O)c2cnc(-c3cccnn3)nc2O)c2ccc(SC)cc2)cc1 (stereo not shown) [Example 178, 4-hydroxy-N-{(4-methoxyphenyl)[4-(methylsulfanyl)phenyl]methyl}-2-(pyridazin-3-yl)pyrimidine-5-carboxamide] | ≤ 10
CC(O)c1ccc(C(NC(=O)c2cnc(-c3cccnn3)nc2O)c2ccc(Cl)cc2)cc1 (stereo not shown) [Example 179, N-{(4-chlorophenyl)[4-(1-hydroxyethyl)phenyl]methyl}-4-hydroxy-2-(pyridazin-3-yl)pyrimidine-5-carboxamide] | ≤ 10
C[C@@H](NC(=O)[C@H](NC(=O)c1cnc(-n2cccn2)nc1O)c1ccccc1)c1ccccc1 [Example 180, 4-Hydroxy-N-((1R)-2-oxo-1-phenyl-2-{[(1R)-1-phenylethyl]amino}ethyl)-2-(1H-pyrazol-1-yl)pyrimidine-5-carboxamide] | 10 to 100
COCc1ccc(C(NC(=O)c2cnc(-c3cccnn3)nc2O)c2ccc(COC)cc2)cc1 [Example 184, N-{bis[4-(methoxymethyl)phenyl]methyl}-4-hydroxy-2-pyridazin-3-ylpyrimidine-5-carboxamide] | ≤ 10
C[C@H](NC(=O)c1cnc(-c2cccnn2)nc1O)c1ccc(-c2cccc3cnccc23)cc1 [Example 185, 4-hydroxy-N-[(1S)-1-(4-isoquinolin-5-ylphenyl)ethyl]-2-pyridazin-3-ylpyrimidine-5-carboxamide] | ≤ 10
C[C@H](NC(=O)c1cnc(-c2cccnn2)nc1O)c1ccc(-c2ccc(F)nc2)cc1 [Example 186, N-{(1S)-1-[4-(6-fluoropyridin-3-yl)phenyl]ethyl}-4-hydroxy-2-pyridazin-3-ylpyrimidine-5-carboxamide trifluoroacetate (salt)] | ≤ 10
C[C@H](NC(=O)c1cnc(-c2cccnn2)nc1O)c1ccc(-c2cccnc2)cc1 [Example 187, 4-hydroxy-2-pyridazin-3-yl-N-[(1S)-1-(4-pyridin-3-ylphenyl)ethyl]pyrimidine-5-carboxamide trifluoroacetate (salt)] | ≤ 10
CC(C)(NC(=O)c1cnc(-n2cccn2)nc1O)C(=O)O [Example 188, N-{[4-hydroxy-2-(1H-pyrazol-1-yl)pyrimidin-5-yl]carbonyl}-2-methylalanine] | 100 to 1000
CC(C)(NC(=O)c1cnc(-n2cccn2)nc1O)C(=O)N1CCc2ccccc21 [Example 189, N-[1-(2,3-dihydro-1H-indol-1-yl)-2-methyl-1-oxopropan-2-yl]-4-hydroxy-2-(1H-pyrazol-1-yl)pyrimidine-5-carboxamide] | ≤ 10
COc1ccc(C(NC(=O)c2cnc(-c3cccnn3)nc2O)c2ccc(OC)nc2)cn1 [Example 192, N-[bis(6-methoxypyridin-3-yl)methyl]-4-hydroxy-2-(pyridazin-3-yl)pyrimidine-5-carboxamide] | ≤ 10
